Data reported in patent US10253035B2 (priority 2016, dated 2019).
“Also recorded” adds a separate entry of the source. Where two headings read alike, the source gives them in different places.

How the values were obtained:
[1] = target: T1, Eis_Mtb (Mycobacterium tuberculosis, UniProt P9WFK7); assay type: biochemical
[2] = target: T1, Eis_Mtb; test: biochemical; assay type: biochemical
[3] = test system: Mtb H37Rv; assay type: cell-based
[4] = target: AAC(2′)-Ic (Mycobacterium tuberculosis, UniProt P9WQG9); test: biochemical; set-up: species or system Mtb
[5] = test system: AAC(3)-IV; test: Selectivity: KAN acetylation by AAC(3)-IV; assay type: biochemical, E. coli; settings: for inhibition of KAN acetylation by AAC(3)-IV (in words): concentrations as high as 200 μM
[6] = target: AAC(6′)-Ie/APH(2″)-Ia (Staphylococcus aureus, UniProt P0A0C1); test: Selectivity: KAN acetylation by AAC(6′)-Ie/APH(2″)-Ia; assay type: biochemical
[7] = test system: A549, HEK-293, and J774A.1 cells; settings: KAN alone at sub-IC50 concentrations (FIG. 9)
[8] = activity of KAN against Mtb H37Rv with compound at concentration tested (100x IC50 or 100 μM), Example 1, two experiments
[9] = KAN MIC for H37Rv Mtb in the presence of compound at the specified concentration, Example 4
[10] = concentrations as high as 200 μM

Sequence of AAC(2′)-Ic (P9WQG9 whole entry): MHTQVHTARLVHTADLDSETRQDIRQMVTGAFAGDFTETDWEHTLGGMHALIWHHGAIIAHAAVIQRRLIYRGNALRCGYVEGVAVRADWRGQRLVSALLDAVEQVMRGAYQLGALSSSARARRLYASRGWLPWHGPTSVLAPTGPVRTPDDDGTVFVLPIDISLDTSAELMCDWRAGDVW
Sequence of AAC(6′)-Ie/APH(2″)-Ia (P0A0C1 whole entry): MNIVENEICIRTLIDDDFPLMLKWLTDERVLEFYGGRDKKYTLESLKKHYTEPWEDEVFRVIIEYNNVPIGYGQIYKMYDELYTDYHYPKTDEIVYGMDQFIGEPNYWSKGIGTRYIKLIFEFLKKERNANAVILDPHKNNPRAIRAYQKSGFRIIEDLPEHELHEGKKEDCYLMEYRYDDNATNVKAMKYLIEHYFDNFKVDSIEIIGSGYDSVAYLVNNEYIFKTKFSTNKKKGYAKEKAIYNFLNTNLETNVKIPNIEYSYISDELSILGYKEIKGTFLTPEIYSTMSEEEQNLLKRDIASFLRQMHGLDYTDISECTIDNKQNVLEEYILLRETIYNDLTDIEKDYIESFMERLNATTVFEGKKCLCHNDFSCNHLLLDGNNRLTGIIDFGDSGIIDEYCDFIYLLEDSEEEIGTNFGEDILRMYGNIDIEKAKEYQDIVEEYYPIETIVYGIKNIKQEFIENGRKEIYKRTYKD
T1 sequence (P9WFK7 2-402 limits assumed): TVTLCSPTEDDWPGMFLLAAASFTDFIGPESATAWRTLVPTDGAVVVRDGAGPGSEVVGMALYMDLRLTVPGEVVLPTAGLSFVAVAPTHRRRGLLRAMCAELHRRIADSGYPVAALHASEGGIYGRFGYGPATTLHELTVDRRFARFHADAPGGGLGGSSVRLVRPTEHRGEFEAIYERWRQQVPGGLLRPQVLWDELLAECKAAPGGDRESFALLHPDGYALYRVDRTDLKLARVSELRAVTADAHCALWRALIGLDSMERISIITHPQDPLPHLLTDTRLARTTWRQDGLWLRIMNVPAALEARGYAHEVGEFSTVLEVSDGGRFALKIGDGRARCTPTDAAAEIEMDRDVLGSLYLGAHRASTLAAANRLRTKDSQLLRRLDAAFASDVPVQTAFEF

Compound: Cc1cc(NS(=O)(=O)c2ccc3[nH]c(=O)c(=O)[nH]c3c2)ccc1Br [Compound 1]
- Eis inhibition in the HTS (in words) [1]: modest Eis inhibition; also recorded: did not display significant Eis inhibition

Compound: CCC(=O)Cn1c(C(=O)OC)cc2occc21 [Compound 1l]
- IC50 [2]: > 200000 nM

Compound: COC(=O)c1cc2occc2n1CC(=O)C(C)(C)C [Compound 1m]
- IC50 ([2]; read-out: IC50): > 200000 nM
- H37Rv MICKAN [3, 8]: ≤1.25 µg/mL

Compound: CCC(=O)CN1C(=O)C2(OCCO2)c2ccccc21 [Compound 2l]
- IC50 ([2]; read-out: IC50): > 200000 nM
- H37Rv MICKAN [3, 8]: ≤1.25 µg/mL

Compound: O=C(CN1C(=O)C2(OCCO2)c2ccccc21)c1cccc([N+](=O)[O-])c1 [Compound 2n]
- IC50 ([2]; read-out: IC50): 1200 ± 400 nM

Compound: O=c1[nH]c2ccc(S(=O)(=O)Nc3ccc(Cl)c(C(F)(F)F)c3)cc2[nH]c1=O [Compound 3]
- Eis inhibition in the HTS (in words) [1]: modest Eis inhibition

Compound: O=C(C[N+]1=C(c2ccc(F)c(F)c2)c2cccn2CC1)c1cccc(Cl)c1 [Compound 3d]
- IC50 ([2]; read-out: IC50): 43 ± 6 nM

Compound: O=C(C[N+]1=C(c2ccc(F)c(F)c2)c2cccn2CC1)c1ccc(F)cc1 [Compound 3h]
- IC50 ([2]; read-out: IC50): 110 ± 30 nM

Compound: CCN(CC)CCCNC1=NS(=O)(=O)C(c2ccc(C)c(C)c2)=C1C [Compound 3i]
- H37Rv MICKAN [3, 9]: 0.625 µg/mL

Compound: Cc1ccc(C(=O)C[N+]2=C(c3ccc(F)c(F)c3)c3cccn3CC2)cc1 [Compound 3k]
- IC50 ([2]; read-out: IC50): 110 ± 30 nM

Compound: CC1=C(c2ccc(F)cc2)S(=O)(=O)N=C1NCCCN1CCCCC1 [Compound 6b]
- H37Rv MICKAN [3, 9]: 0.625 µg/mL

Compound: CC1=C(c2ccc(F)cc2)S(=O)(=O)N=C1NCCCN1CCCCC1C (centres unmarked) [Compound 7b]
- H37Rv MICKAN [3, 9]: 0.625 µg/mL

Compound: CN1C(=O)C2(OCCO2)c2ccccc21 [Compound 8b]
- Eis inhibition in the HTS (in words) [1]: no Eis_Mtb inhibitory activity

Compound: CC1=C(c2ccc(Cl)cc2)S(=O)(=O)N=C1NCCCN1CCc2ccccc2C1 [Compound 11c]
- H37Rv MICKAN [3, 9]: 0.625 µg/mL

Compound: CC1=C(c2ccccc2)S(=O)(=O)N=C1NCCCN1CCOCC1 [Compound 13a]
- H37Rv MICKAN [3, 9]: 0.625 µg/mL

Compound: CC1=C(c2ccc(C)cc2)S(=O)(=O)N=C1NCCCN1CCOCC1 [Compound 13e]
- H37Rv MICKAN [3, 9]: 0.625 µg/mL

Compound: CC1=C(c2cccc(Cl)c2)S(=O)(=O)N=C1NCCCN1CCOCC1 [Compound 13g]
- H37Rv MICKAN [3, 9]: 0.625 µg/mL

Compound: CC1=C(c2ccc(C)c(C)c2)S(=O)(=O)N=C1NCCCN1CCOCC1 [Compound 13i]
- H37Rv MICKAN [3, 9]: 0.625 µg/mL

Compound: COc1ccc(N(C)S(=O)(=O)c2ccc3[nH]c(=O)c(=O)[nH]c3c2)cc1 [Compound 14]
- Eis inhibition in the HTS (in words) [1]: inactive

Compound: CC1=C(c2ccc(Cl)cc2)S(=O)(=O)N=C1NCCCN1CCN(C)CC1 [Compound 14c]
- H37Rv MICKAN [3, 9]: 0.625 µg/mL

Compound: Cc1ccc(N(C)S(=O)(=O)c2ccc3[nH]c(=O)c(=O)[nH]c3c2)cc1 [Compound 15]
- Eis inhibition in the HTS (in words) [1]: inactive

Compound: CCN1CCN(CCCNC2=NS(=O)(=O)C(c3ccc(C)cc3)=C2C)CC1 [Compound 15e]
- H37Rv MICKAN [3, 9]: 0.625 to 1.25 µg/mL

Compound: CCN1CCN(CCCNC2=NS(=O)(=O)C(c3ccc(C(C)C)cc3)=C2C)CC1 [Compound 15f]
- H37Rv MICKAN [3, 9]: 0.625 to 1.25 µg/mL

Compound: CC1=C(c2ccc(C)c(C)c2)S(=O)(=O)N=C1NCCCN1CCN(C2CCCCC2)CC1 [Compound 17i]
- H37Rv MICKAN [3, 9]: 0.625 to 1.25 µg/mL

Compound: CN(c1ccc(Br)cc1)S(=O)(=O)c1ccc2[nH]c(=O)c(=O)[nH]c2c1 [Compound 29]
- Eis inhibition in the HTS (in words) ([1]; single-point HTS of library compounds): potently inhibited Eis activity

Compound: CC1=C(c2ccccc2)S(=O)(=O)N=C1NCCN1CCCCC1 [Compound 33a]
- H37Rv MICKAN [3, 9]: 0.625 µg/mL

Compound: CC1=C(c2ccc(C)cc2)S(=O)(=O)N=C1NCCN1CCOCC1 [Compound 35e]
- H37Rv MICKAN [3, 9]: 0.625 µg/mL

Compound: CC1=C(c2cccc(Cl)c2)S(=O)(=O)N=C1NCCN1CCOCC1 [Compound 35g]
- H37Rv MICKAN [3, 9]: 0.625 µg/mL

Compound: CC1=C(c2cccc(Br)c2)S(=O)(=O)N=C1NCCN1CCOCC1 [Compound 35h]
- H37Rv MICKAN [3, 9]: 0.625 µg/mL

Compound: CC1=C(c2ccc(C)c(C)c2)S(=O)(=O)N=C1NCCN1CCOCC1 [Compound 35i]
- H37Rv MICKAN [3, 9]: 0.625 µg/mL

Compound: COc1ccc(C2=C(C)C(NCCN3CCN(C)CC3)=NS2(=O)=O)cc1 [Compound 36d]
- H37Rv MICKAN [3, 9]: 0.625 µg/mL

Compound: CCN1CCN(CCNC2=NS(=O)(=O)C(c3ccc(F)cc3)=C2C)CC1 [Compound 37b]
- H37Rv MICKAN [3, 9]: 0.625 µg/mL

Compound: CCN1CCN(CCNC2=NS(=O)(=O)C(c3ccc(OC)cc3)=C2C)CC1 [Compound 37d]
- H37Rv MICKAN [3, 9]: 0.625 to 1.25 µg/mL

Compound: COc1cccc(N(C)S(=O)(=O)c2ccc3[nH]c(=O)c(=O)[nH]c3c2)c1 [Compound 39]
- inhibition at 200 µM ([4]; read-out: inhibition of the AAC(2′)-Ic activity): 15%
- inhibition of KAN acetylation by AAC(3)-IV (in words) [5]: did not inhibit KAN acetylation
- inhibition of KAN acetylation by AAC(6′)-Ie/APH(2″)-Ia (in words) [6]: did not inhibit KAN acetylation

Compound: CN(c1ccc2ccccc2c1)S(=O)(=O)c1ccc2[nH]c(=O)c(=O)[nH]c2c1 [Compound 46]
- inhibition of KAN acetylation by AAC(2′)-Ic (in words) [4, 10]: did not inhibit KAN acetylation
- inhibition of KAN acetylation by AAC(3)-IV (in words) [5]: did not inhibit KAN acetylation
- inhibition of KAN acetylation by AAC(6′)-Ie/APH(2″)-Ia (in words) [6, 10]: did not inhibit KAN acetylation

Compound: CC1=C(c2ccc(F)cc2)S(=O)(=O)N=C1N1CCC(N2CCCCC2)CC1 [Compound 46b]
- IC50 ([2]; read-out: IC50): 92 ± 21 nM
- H37Rv MICKAN [3, 9]: 0.625 to 1.25 µg/mL
- inhibition of KAN acetylation by AAC(2′)-Ic (in words) [4]: no inhibition by either compound was observed
- % activity ([4]; 200 µM): 100%
- % activity ([5]; AAC(3)-IV activity at 200 μM inhibitor relative to that without inhibitor): 100%
- inhibition of KAN acetylation by AAC(3)-IV (in words) [5]: no inhibition by either compound was observed
- % activity ([6]; acetylation activity of AAC(6′)-Ie/APH(2″)-Ia at 200 μM inhibitor relative to that without inhibitor): 80%
- inhibition of KAN acetylation by AAC(6′)-Ie/APH(2″)-Ia (in words) [6, 10]: no inhibition by either compound was observed

Compound: COc1cc(N(C)S(=O)(=O)c2ccc3[nH]c(=O)c(=O)[nH]c3c2)cc2ccccc12 [Compound 47]
- inhibition of purified Eis (in words) ([2]; dose-response assay): loss of Eis inhibition

Compound: CCCN1CCN(C2=NS(=O)(=O)C(c3ccc(C)c(C)c3)=C2C)CC1 [Compound 62i]
- H37Rv MICKAN [3, 9]: 0.625 µg/mL

Compound: CC1=C(c2ccc(F)cc2)S(=O)(=O)N=C1NCc1ccccc1 [Compound 89b]
- H37Rv MICKAN [3, 9]: 1.25 µg/mL

Compound: CC1=C(c2ccc(F)cc2)S(=O)(=O)N=C1NCc1ccccn1 [Compound 112b]
- H37Rv MICKAN [3, 9]: 0.625 µg/mL

Compound: CC1=C(c2ccc(C)c(C)c2)S(=O)(=O)N=C1NCC(=O)NCc1ccc(C)o1 [Compound 116i]
- H37Rv MICKAN [3, 9]: 1.25 µg/mL

Compound: NC[C@H]1O[C@H](O[C@H]2[C@H](O)[C@@H](O[C@H]3O[C@H](CO)[C@@H](O)[C@H](N)[C@H]3O)[C@H](N)C[C@@H]2N)[C@H](O)[C@@H](O)[C@@H]1O [KAN, kanamycin A]
- effect on cell growth (in words) [7]: promotes cell growth

Compound: COC(=O)c1cc2occc2n1CC(=O)c1cccc(OC)c1 [if]
- IC50 [2]: > 200000 nM
